Source: ChEMBL document CHEMBL1201862, “PubChem BioAssay data set” (2004)
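Tested at 5 concentrations; 48 h exposure; 96-well plates; endpoints linearly interpolated, else capped at highest concentration. At the GI50, growth is halved.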 Active and inactive are the calls of the source. Cut-off read from the data, not from the text of the source: active = GI50 up to about 1.1 µM and inactive = higher.

Columns and labels:
Assay in all cases: DTP human tumour cell line panel, 48 h
A498 = test system: A498
MOLT-4 = test system: MOLT-4
CAKI-1 = test system: CAKI-1
SNB-19 = test system: SNB-19
SNB-75 = test system: SNB-75
M19-MEL = test system: M19-MEL
SF-539 = test system: SF-539
K562 = test system: K562
NCI-H226 = test system: NCI-H226
HL-60 = test system: HL-60
NCI-H522 = test system: NCI-H522
CCRF-CEM = test system: CCRF-CEM
RPMI-8226 = test system: RPMI-8226
SF-295 = test system: SF-295
HT-29 = test system: HT-29
SK-OV-3 = test system: SK-OV-3
IGROV-1 = test system: IGROV-1
HCT-116 = test system: HCT-116
HCC 2998 = test system: HCC 2998
NCI-H460 = test system: NCI-H460
SK-MEL-5 = test system: SK-MEL-5
SNB-78 = test system: SNB-78
OVCAR-3 = test system: OVCAR-3
COLO 205 = test system: COLO 205
DMS-273 = test system: DMS-273
HOP-92 = test system: HOP-92
XF498 = test system: XF498
UO-31 = test system: UO-31
HCT-15 = test system: HCT-15
DMS-114 = test system: DMS-114
HOP-62 = test system: HOP-62
KM-20L2 = test system: KM-20L2
OVCAR-5 = test system: OVCAR-5
Malme-3M = test system: Malme-3M
UACC-257 = test system: UACC-257
SK-MEL-2 = test system: SK-MEL-2
LOX IMVI = test system: LOX IMVI
OVCAR-8 = test system: OVCAR-8
SW-620 = test system: SW-620
MCF7 = test system: MCF7
U-251 = test system: U-251
SN12C = test system: SN12C
KM12 = test system: KM12
EKVX = test system: EKVX
A549 = test system: A549
RXF 393 = test system: RXF 393
NCI-H23 = test system: NCI-H23
OVCAR-4 = test system: OVCAR-4
NCI/ADR-RES = test system: NCI/ADR-RES
SF-268 = test system: SF-268
HOP-18 = test system: HOP-18
SK-MEL-28 = test system: SK-MEL-28
DLD-1 = test system: DLD-1
UACC-62 = test system: UACC-62
ACHN = test system: ACHN
LXFL 529 = test system: LXFL 529
786-0 = test system: 786-0
M14 = test system: M14
TK-10 = test system: TK-10

N/C(=N\O)N/N=C/c1ncccc1O
GI50 (A498): 35.7 µM (inactive)
GI50 (MOLT-4): 11.2 µM (inactive)
GI50 (CAKI-1): 22.4 µM (inactive)
GI50 (SNB-19): 33.8 µM (inactive)
GI50 (SNB-75): 17.9 µM (inactive)
GI50 (M19-MEL): 19.2 µM (inactive)
GI50 (SF-539): 19.7 µM (inactive)
GI50 (K562): 4.82 µM (inactive)
GI50 (NCI-H226): 18.7 µM (inactive)
GI50 (HL-60): 2.41 µM (inactive)
GI50 (NCI-H522): 15.1 µM (inactive)
GI50 (CCRF-CEM): 6.43 µM (inactive)
GI50 (RPMI-8226): 1.83 µM (inactive)
GI50 (SF-295): 10.6 µM (inactive)
GI50 (HT-29): 13.4 µM (inactive)
GI50 (SK-OV-3): 35.9 µM (inactive)
GI50 (IGROV-1): 16.2 µM (inactive)
GI50 (HCT-116): 11.8 µM (inactive)
GI50 (HCC 2998): 12.1 µM (inactive)
GI50 (NCI-H460): 5.96 µM (inactive)
GI50 (SK-MEL-5): 11.4 µM (inactive)
GI50 (SNB-78): > 88.5 µM (inactive)
GI50 (OVCAR-3): 14.8 µM (inactive)
GI50 (COLO 205): 11.9 µM (inactive)
GI50 (DMS-273): 7.28 µM (inactive)
GI50 (HOP-92): 61.7 µM (inactive)
GI50 (XF498): 12.4 µM (inactive)
GI50 (UO-31): 13.3 µM (inactive)
GI50 (HCT-15): 4.66 µM
GI50 (DMS-114): 8.05 µM (inactive)
GI50 (HOP-62): 19.8 µM (inactive)
GI50 (KM-20L2): 10.4 µM (inactive)
GI50 (OVCAR-5): 31.5 µM (inactive)
GI50 (Malme-3M): 35.2 µM (inactive)
GI50 (UACC-257): 26.1 µM (inactive)
GI50 (SK-MEL-2): 31.3 µM (inactive)
GI50 (LOX IMVI): 11.2 µM (inactive)
GI50 (OVCAR-8): 5.04 µM (inactive)
GI50 (SW-620): 22 µM (inactive)
GI50 (MCF7): 2.07 µM (inactive)
GI50 (U-251): 15.5 µM (inactive)
GI50 (SN12C): 16.7 µM (inactive)
GI50 (KM12): 5.81 µM (inactive)
GI50 (EKVX): 22.1 µM (inactive)
GI50 (A549): 10.1 µM (inactive)
GI50 (RXF 393): 38.2 µM (inactive)
GI50 (NCI-H23): > 49 µM (inactive)
GI50 (OVCAR-4): 18.1 µM (inactive)
GI50 (NCI/ADR-RES): 8.73 µM (inactive)
GI50 (SF-268): 22.7 µM (inactive)
GI50 (HOP-18): 22.8 µM (inactive)
GI50 (SK-MEL-28): 45.9 µM (inactive)
GI50 (DLD-1): 5.65 µM (inactive)
GI50 (UACC-62): 10.3 µM (inactive)

Nc1c(-c2cn(Cc3ccccc3)c3ccccc23)[n+]([O-])c2ccccc2[n+]1[O-]
GI50 (A498): 18.4 µM (inactive)
GI50 (MOLT-4): 16.8 µM (inactive)
GI50 (CAKI-1): 16 µM (inactive)
GI50 (SNB-19): 36.6 µM (inactive)
GI50 (SNB-75): 16.4 µM (inactive)
GI50 (M19-MEL): 38.9 µM (inactive)
GI50 (K562): 24.5 µM (inactive)
GI50 (NCI-H226): 6.35 µM (inactive)
GI50 (HL-60): 9.46 µM (inactive)
GI50 (NCI-H522): 13.2 µM (inactive)
GI50 (CCRF-CEM): 27.1 µM (inactive)
GI50 (RPMI-8226): 24.6 µM (inactive)
GI50 (SF-295): 21.9 µM (inactive)
GI50 (HT-29): 27.2 µM (inactive)
GI50 (SK-OV-3): 24.8 µM (inactive)
GI50 (IGROV-1): 21.7 µM (inactive)
GI50 (HCC 2998): 35.8 µM (inactive)
GI50 (NCI-H460): 28.5 µM (inactive)
GI50 (SK-MEL-5): 21.9 µM (inactive)
GI50 (SNB-78): 53.8 µM (inactive)
GI50 (OVCAR-3): 19.8 µM (inactive)
GI50 (COLO 205): 35.3 µM (inactive)
GI50 (DMS-273): 23.8 µM (inactive)
GI50 (ACHN): 15.5 µM (inactive)
GI50 (HOP-92): 8.79 µM (inactive)
GI50 (XF498): 12.6 µM (inactive)
GI50 (UO-31): 10.2 µM (inactive)
GI50 (HCT-15): 27.2 µM
GI50 (DMS-114): 16.7 µM (inactive)
GI50 (KM-20L2): 34.6 µM (inactive)
GI50 (OVCAR-5): 25.6 µM (inactive)
GI50 (LXFL 529): 23.9 µM (inactive)
GI50 (Malme-3M): 29.7 µM (inactive)
GI50 (UACC-257): 12.8 µM (inactive)
GI50 (786-0): 30.7 µM (inactive)
GI50 (SK-MEL-2): 23.1 µM (inactive)
GI50 (LOX IMVI): 24.2 µM (inactive)
GI50 (OVCAR-8): 45.4 µM (inactive)
GI50 (SW-620): 51.4 µM (inactive)
GI50 (U-251): 32.5 µM (inactive)
GI50 (SN12C): 31.8 µM (inactive)
GI50 (KM12): 28.8 µM (inactive)
GI50 (EKVX): 32.6 µM (inactive)
GI50 (A549): 30.8 µM (inactive)
GI50 (NCI-H23): 22 µM (inactive)
GI50 (OVCAR-4): 43.6 µM (inactive)
GI50 (SF-268): 21.5 µM (inactive)
GI50 (M14): 25.4 µM (inactive)
GI50 (SK-MEL-28): 25.4 µM (inactive)
GI50 (DLD-1): 32.7 µM (inactive)
GI50 (UACC-62): 23.6 µM (inactive)
GI50 (TK-10): 28.3 µM (inactive)

Nc1c(S(=O)(=O)O)cc(S(=O)(=O)O)c2ccc(/N=N/c3ccc(/C=C/c4ccc(/N=N/c5ccc6c(S(=O)(=O)O)cc(S(=O)(=O)O)c(N)c6c5O)cc4S(=O)(=O)O)c(S(=O)(=O)O)c3)c(O)c12
GI50 (A498): > 100 µM (inactive)
GI50 (MOLT-4): > 100 µM (inactive)
GI50 (SNB-19): > 100 µM (inactive)
GI50 (SNB-75): 56.9 µM (inactive)
GI50 (M19-MEL): > 100 µM (inactive)
GI50 (SF-539): > 100 µM (inactive)
GI50 (K562): > 100 µM (inactive)
GI50 (NCI-H226): > 100 µM (inactive)
GI50 (HL-60): 36.1 µM (inactive)
GI50 (NCI-H522): 54.1 µM (inactive)
GI50 (CCRF-CEM): > 100 µM (inactive)
GI50 (RPMI-8226): > 100 µM (inactive)
GI50 (SF-295): > 100 µM (inactive)
GI50 (HT-29): > 100 µM (inactive)
GI50 (SK-OV-3): 97.1 µM (inactive)
GI50 (IGROV-1): 90.2 µM (inactive)
GI50 (HCT-116): > 100 µM (inactive)
GI50 (HCC 2998): > 100 µM (inactive)
GI50 (NCI-H460): > 92.7 µM (inactive)
GI50 (SK-MEL-5): > 100 µM (inactive)
GI50 (SNB-78): > 83.4 µM (inactive)
GI50 (OVCAR-3): > 100 µM (inactive)
GI50 (COLO 205): > 100 µM (inactive)
GI50 (DMS-273): > 100 µM (inactive)
GI50 (HOP-92): 35.6 µM (inactive)
GI50 (XF498): > 46.6 µM (inactive)
GI50 (UO-31): 37.1 µM (inactive)
GI50 (HCT-15): > 73.5 µM
GI50 (DMS-114): > 100 µM (inactive)
GI50 (HOP-62): > 100 µM (inactive)
GI50 (KM-20L2): 79.4 µM (inactive)
GI50 (OVCAR-5): 59.4 µM (inactive)
GI50 (Malme-3M): > 100 µM (inactive)
GI50 (UACC-257): > 100 µM (inactive)
GI50 (SK-MEL-2): > 100 µM (inactive)
GI50 (LOX IMVI): > 100 µM (inactive)
GI50 (OVCAR-8): > 100 µM (inactive)
GI50 (SW-620): > 100 µM (inactive)
GI50 (MCF7): > 100 µM (inactive)
GI50 (U-251): > 100 µM (inactive)
GI50 (SN12C): > 100 µM (inactive)
GI50 (KM12): > 100 µM (inactive)
GI50 (EKVX): > 100 µM (inactive)
GI50 (A549): 75 µM (inactive)
GI50 (RXF 393): > 85.1 µM (inactive)
GI50 (NCI-H23): > 100 µM (inactive)
GI50 (OVCAR-4): > 57.9 µM (inactive)
GI50 (NCI/ADR-RES): > 100 µM (inactive)
GI50 (SF-268): > 100 µM (inactive)
GI50 (HOP-18): > 100 µM (inactive)
GI50 (SK-MEL-28): > 100 µM (inactive)
GI50 (DLD-1): > 100 µM (inactive)
GI50 (UACC-62): > 100 µM (inactive)
